Laboratory results reported in patent US8628771B2, “CA IX-specific inhibitors” (Institute of Virology Slovak Academy of Sciences, priority 2002, dated 2014).
Where “and” joins values, the source holds several entries; their conditions need not be identical. Identical values can stand only once. Like-named read-outs stand apart in the source and are kept apart here.

How the values were obtained:
hCA I = target: T1, hCA I (Homo sapiens, UniProt P00915); test: CA esterase activity assay, isozyme hCA I; assay type: biochemical
T1 construct: made in house; host or cells: Escherichia coli BL21 (DE3)

hCA II = target: T2, hCA II (Homo sapiens, UniProt P00918); test: CA esterase activity assay, isozyme hCA II; assay type: biochemical
T2 construct: made in house; host or cells: Escherichia coli BL21 (DE3)

bCA IV = target: T3, bCA IV (Bos taurus, UniProt Q95323); test: CA esterase activity assay, isozyme bCA IV; assay type: biochemical, bovine
T3 construct: CA IV was isolated from bovine lung microsomes as described by Maren et al; from tissue; host or cells: bovine lung microsomes
T3 sequence (Q95323 19-284): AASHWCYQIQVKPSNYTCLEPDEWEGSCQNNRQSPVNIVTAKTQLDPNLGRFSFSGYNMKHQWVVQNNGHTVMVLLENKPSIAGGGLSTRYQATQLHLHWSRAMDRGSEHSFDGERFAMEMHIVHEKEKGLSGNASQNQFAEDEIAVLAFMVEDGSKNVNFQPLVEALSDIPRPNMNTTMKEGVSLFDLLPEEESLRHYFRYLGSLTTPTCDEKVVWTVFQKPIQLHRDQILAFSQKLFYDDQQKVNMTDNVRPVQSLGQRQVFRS

hCA IX = hCA IX (Homo sapiens, UniProt Q16790); test: CA CO2 hydrase activity assay, tumor-associated isozyme hCA IX
[1] = Table 2, human (cloned) isozymes, read-out: KI hCA I
[2] = Table 2, human (cloned) isozymes, read-out: KI hCA II
[3] = Table 2, from bovine lung microsomes, read-out: KI bCA IV
[4] = read-out: KI hCA IX, Table 2, catalytic domain of the human, cloned isozyme
[5] = KI against CA IX, text discussion of Tables 1-3
[6] = Table 3, human (cloned) isozymes, esterase assay method, read-out: KI hCA I
[7] = Table 3, human (cloned) isozymes, esterase assay method, read-out: KI hCA II
[8] = Tables 1 and 3, read-out: KI against CA II
[9] = Table 3, from bovine lung microsomes, esterase assay method, read-out: KI bCA IV
[10] = read-out: KI hCA IX, Table 3, catalytic domain of the human, cloned isozyme, CO2 hydrase assay method
[11] = Table 3, read-out: KI against CA I
[12] = Table 3, read-out: KI against CA IV

T1 sequence (P00915 whole entry): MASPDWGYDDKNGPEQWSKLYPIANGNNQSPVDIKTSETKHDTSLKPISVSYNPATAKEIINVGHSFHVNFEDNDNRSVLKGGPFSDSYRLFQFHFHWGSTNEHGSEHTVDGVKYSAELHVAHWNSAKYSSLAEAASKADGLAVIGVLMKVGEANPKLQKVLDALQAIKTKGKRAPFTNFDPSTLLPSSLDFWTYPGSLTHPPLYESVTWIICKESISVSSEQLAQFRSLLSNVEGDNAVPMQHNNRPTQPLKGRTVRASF

Structure (SMILES)	Ki (hCA I; [1]) [nM]	Ki (hCA II; [2]) [nM]	Ki (bCA IV; [3]) [nM]	Ki (hCA IX) [nM]	Ki (hCA IX; [4]) [nM]	Ki (hCA II; read-out: KI hCA II) [nM]	Ki (hCA IX; [5])	Ki (bCA IV; read-out: KI bCA IV) [nM]	Ki (hCA I; [6]) [nM]	Ki (hCA II; [7]) [nM]	Ki (hCA II; [8]) [nM]	Ki (bCA IV; [9]) [nM]	Ki (hCA IX; [10]) [nM]	Ki (hCA I; [11]) [nM]	Ki (bCA IV; [12]) [nM]	Ki (hCA II; read-out: KI against CA II) [nM]
NS(=O)(=O)c1ccc(C[n+]2c(-c3ccccc3)cc(-c3ccccc3)cc2-c2ccccc2)cc1 [Compound 52]	280000	472	1960	64 to 135	120	–	–	–	–	–	–	–	–	–	–	–
NS(=O)(=O)c1ccc(C[n+]2c(-c3ccccc3)cccc2-c2ccccc2)cc1 [Compound 53]	280000	493	1950	64 to 135	106	–	–	–	–	–	–	–	–	–	–	–
Cc1cc(C)[n+](Cc2ccc(S(N)(=O)=O)cc2)c(C)c1C [Compound 54]	3000	–	51	–	35	30	6 to 54 nM	–	–	–	–	–	–	–	–	–
Cc1cc(C)[n+](CCc2ccc(S(N)(=O)=O)cc2)c(C(C)C)c1 [Compound 56]	2000	15	32	–	31	–	–	–	–	–	–	–	–	–	–	–
Cc1cc(C(C)C)[n+](CCc2ccc(S(N)(=O)=O)cc2)c(C(C)C)c1 [Compound 57]	3000	20	70	–	49	–	–	–	–	–	–	–	–	–	–	–
Cc1cc(-c2ccccc2)cc(C)[n+]1CCc1ccc(S(N)(=O)=O)cc1 [Compound 58]	1000	8	20	–	6	–	< 10 nM	–	–	–	–	–	–	–	–	–
CCc1cc(-c2ccccc2)cc(CC)[n+]1CCc1ccc(S(N)(=O)=O)cc1 [Compound 59]	1000	9	21	< 10	8	–	–	–	–	–	–	–	–	–	–	–
CCCc1cc(-c2ccccc2)cc(CCC)[n+]1CCc1ccc(S(N)(=O)=O)cc1 [Compound 60]	7000	42	82	160 to 450	205	–	–	–	–	–	–	–	–	–	–	–
CCCc1cc(-c2ccccc2)cc(-c2ccccc2)[n+]1CCc1ccc(S(N)(=O)=O)cc1 [Compound 64]	112000	270	–	–	84	–	–	1060	–	–	–	–	–	–	–	–
CCCCc1cc(-c2ccccc2)cc(-c2ccccc2)[n+]1CCc1ccc(S(N)(=O)=O)cc1 [Compound 66]	290000	544	2010	–	120	–	–	–	–	–	–	–	–	–	–	–
NS(=O)(=O)c1ccc(CC[n+]2c(-c3ccccc3)cccc2-c2ccccc2)cc1 [Compound 69]	265000	–	1900	64 to 135	81	420	–	–	–	–	–	–	–	–	–	–
Cc1cc(C)[n+](CCc2ccc(S(N)(=O)=O)cc2)c(C)c1C [Compound 70]	2000	10	21	–	8	–	6 to 54 nM and < 10 nM	–	–	–	–	–	–	–	–	–
Cc1cc(C)[n+](-c2ccc(S(=O)(=O)Nc3nnc(S(N)(=O)=O)s3)cc2)c(C(C)C)c1 [Compound 72, 1-N-[5-Sulfamoyl-1,3,4-thiadiazol-2-yl-(aminosulfonyl-4-phenyl)]-2-iso-propyl-4,6-dimethylpyridinium perchlorate]	–	–	–	3 to 9	–	–	–	–	4	0.39	0.2 to 1.61	3	5	–	–	–
Cc1cc(C(C)C)[n+](-c2ccc(S(=O)(=O)Nc3nnc(S(N)(=O)=O)s3)cc2)c(C(C)C)c1 [Compound 73, 1-N-[5-Sulfamoyl-1,3,4-thiadiazol-2-yl-(aminosulfonyl-4-phenyl)]-2,6-di-iso-propyl-4-methylpyridinium perchlorate]	–	–	–	–	–	–	12 to 35 nM	–	7	1.54	0.2 to 1.61	4.7	16	7 to 12	–	–
Cc1cc(C(C)(C)C)[n+](-c2ccc(S(=O)(=O)Nc3nnc(S(N)(=O)=O)s3)cc2)c(C(C)(C)C)c1 [Compound 74]	–	–	–	12 to 35	–	–	–	–	11	3.13	3.13 to 5.96	9.4	34	7 to 12	5.2 to 10.3	–
Cc1cc(-c2ccccc2)cc(C)[n+]1-c1ccc(S(=O)(=O)Nc2nnc(S(N)(=O)=O)s2)cc1 [Compound 75, 1-N-[5-Sulfamoyl-1,3,4-thiadiazol-2-yl-(aminosulfonyl-4-phenyl)]-2,6-dimethyl-4-phenylpyridinium perchlorate]	–	–	–	–	–	–	3 to 9 nM	–	–	0.2	–	2	6	3	–	0.2 to 1.61
CCCc1cc(-c2ccccc2)cc(CCC)[n+]1-c1ccc(S(=O)(=O)Nc2nnc(S(N)(=O)=O)s2)cc1 [Compound 77, 1-N-[5-Sulfamoyl-1,3,4-thiadiazol-2-yl-(aminosulfonyl-4-phenyl)]-2,6-di-n-propyl-4-phenylpyridinium perchlorate]	–	–	–	12 to 35	–	–	–	–	9	3.45	3.13 to 5.96	8.1	35	7 to 12	5.2 to 10.3	–
CCCCc1cc(-c2ccccc2)cc(CCCC)[n+]1-c1ccc(S(=O)(=O)Nc2nnc(S(N)(=O)=O)s2)cc1 [Compound 78]	–	–	–	–	–	–	40 to 43 nM	–	10	4.62	3.13 to 5.96	10.3	40	7 to 12	5.2 to 10.3	–
CC(C)c1cc(-c2ccccc2)cc(C(C)C)[n+]1-c1ccc(S(=O)(=O)Nc2nnc(S(N)(=O)=O)s2)cc1 [Compound 79, 1-N-[5-Sulfamoyl-1,3,4-thiadiazol-2-yl-(aminosulfonyl-4-phenyl)]-2,6-di-isopropyl-4-phenylpyridinium perchlorate]	–	–	–	–	–	–	12 to 35 nM	–	5	1.61	0.2 to 1.61	4.1	30	–	–	–
Cc1cc(-c2ccccc2)cc(-c2ccccc2)[n+]1-c1ccc(S(=O)(=O)Nc2nnc(S(N)(=O)=O)s2)cc1 [Compound 80, 1-N-[5-Sulfamoyl-1,3,4-thiadiazol-2-yl-(aminosulfonyl-4-phenyl)]-2-methyl-4,6-diphenylpyridinium perchlorate]	–	–	–	12 to 35	–	–	–	–	4	1.21	0.2 to 1.61	3	24	–	–	–
CCc1cc(-c2ccccc2)cc(-c2ccccc2)[n+]1-c1ccc(S(=O)(=O)Nc2nnc(S(N)(=O)=O)s2)cc1 [Compound 81, 1-N-[5-Sulfamoyl-1,3,4-thiadiazol-2-yl-(aminosulfonyl-4-phenyl)]-2-ethyl-4,6-diphenylpyridinium perchlorate]	–	–	–	–	–	–	12 to 35 nM	–	5	1.14	–	3.8	29	–	–	0.2 to 1.61
CCCc1cc(-c2ccccc2)cc(-c2ccccc2)[n+]1-c1ccc(S(=O)(=O)Nc2nnc(S(N)(=O)=O)s2)cc1 [Compound 82, 1-N-[5-Sulfamoyl-1,3,4-thiadiazol-2-yl-(aminosulfonyl-4-phenyl)]-2-n-propyl-4,6-diphenylpyridinium perchlorate]	–	–	–	–	–	–	–	–	8	3.9	3.13 to 5.96	6	40	7 to 12	5.2 to 10.3	–
CC(C)c1cc(-c2ccccc2)cc(-c2ccccc2)[n+]1-c1ccc(S(=O)(=O)Nc2nnc(S(N)(=O)=O)s2)cc1 [Compound 83, 1-N-[5-Sulfamoyl-1,3,4-thiadiazol-2-yl-(aminosulfonyl-4-phenyl)]-2-iso-propyl-4,6-diphenylpyridinium perchlorate]	–	–	–	12 to 35	–	–	–	–	6	3.74	3.13 to 5.96	4.5	32	–	–	–
CCCCc1cc(-c2ccccc2)cc(-c2ccccc2)[n+]1-c1ccc(S(=O)(=O)Nc2nnc(S(N)(=O)=O)s2)cc1 [Compound 84, 1-N-[5-Sulfamoyl-1,3,4-thiadiazol-2-yl-(aminosulfonyl-4-phenyl)]-2-n-butyl-4,6-diphenylpyridinium perchlorate]	–	–	–	–	–	–	–	–	8	4.95	3.13 to 5.96	8.4	45	7 to 12	5.2 to 10.3	–
CC(C)(C)c1cc(-c2ccccc2)cc(-c2ccccc2)[n+]1-c1ccc(S(=O)(=O)Nc2nnc(S(N)(=O)=O)s2)cc1 [Compound 85, 1-N-[5-Sulfamoyl-1,3,4-thiadiazol-2-yl-(aminosulfonyl-4-phenyl)]-2-tert-butyl-4,6-diphenylpyridinium perchlorate]	–	–	–	40 to 43	–	–	–	–	12	4.11	3.13 to 5.96	7	43	7 to 12	5.2 to 10.3	–
NS(=O)(=O)c1nnc(NS(=O)(=O)c2ccc(-[n+]3c(-c4ccccc4)cc(-c4ccccc4)cc3-c3ccccc3)cc2)s1 [Compound 87, 1-N-[5-Sulfamoyl-1,3,4-thiadiazol-2-yl-(aminosulfonyl-4-phenyl)]-2,4,6-triphenyl-pyridinium perchlorate]	–	–	–	12 to 35	–	–	–	–	5	5.96	3.13 to 5.96	5.6	12	–	5.2 to 10.3	–
